Reference: publication PMC10630888, “Nuclear ERK1/2 signaling potentiation enhances neuroprotection and cognition via Importinα1/KPNA2” (EMBO Molecular Medicine, 2023)
Where “and” joins values, the source holds several entries; their conditions need not be identical. Equal values may be shown once.

What was measured:
[1] = system: procedural learning (nose poke responses); assay: 9-hole operant boxes, FR1 nose poke, zQ175 mice with RB5; type: in vivo, mouse; conditions: for Nose poke responses (FR1): 9 days of treatment, 20 mg/kg i.p.; for FR1 nose poke, AUC analysis: 20 mg/kg i.p. 1 h before session
Protocol: Operant testing was conducted in 16 9‐hole operant boxes as previously described (Yhnell et al, [2016a]). Each operant box contains a horizontal array of nine holes with infrared beams localized to the front of each hole to detect nose pokes. A peristaltic pump delivers liquid reinforcement (strawberry milk) into a magazine at the front of the box.
A week before starting the training, mice underwent water restriction for 18 h/day and were kept under this regimen throughout the experimental procedures. Mice were taught to nose poke on a simple fixed ratio (FR1) schedule of reinforcement: to obtain reward, mice were required to respond to a stimulus light in the central hole via a single nose poke. zQ175 mice were trained daily on this program for 20‐min sessions for 10 days (training phase). Once trained, animals were subdivided into four groups and injected with RB5 or scramble (20 mg/kg, i.p.) peptides 1 h before being tested on the FR1 schedule for the other 9 days. At the end of the behavioral tests, mice were perfused with 4% PFA, and brains were processed for IHC or IF.

[2] = system: ribosomal protein S6 (Ser 235/236) phosphorylation; assay: pS6 (Ser235/236) immunofluorescence in acute striatal slices with glutamate; type: cell-based, mouse; conditions: peptide 50 μM 1 h, individual slices
Protocol: Adult C57Bl/6 mice were decapitated after cervical dislocation and brain slices were freshly prepared as previously described in Orellana et al ([2012]) and Papale et al ([2016]). Briefly, the brains were rapidly removed from the skull, submerged in ice‐cold sucrose‐based dissecting solution, and sliced into 200 μm‐thick slices using a vibratome. […] After a rapid fixation in 4% PFA, slices were rinsed and cryoprotected overnight at 4°C in 30% sucrose solution. On the following day, slices were cut into 18 μm‐thick slices using a cryostat (Leica CM1850), mounted onto SuperFrost Plus slides (Thermo Scientific) and stored at −20°C until processing for immunohistochemistry or immunofluorescence.
Immunofluorescence was performed as described in Papale et al ([2016]). Briefly, 1 h after blocking in 5% normal goat serum, slices were incubated overnight at 4°C with the following primary antibodies: anti‐phospho (Ser10)‐acetylated (Lys14) histone H3 (1:1,000, Millipore), anti‐phospho‐S6 ribosomal protein (Ser235/236) (1:200, Cell Signaling Technology) anti‐phospho‐S6 ribosomal protein (Ser240/244) (1:200, Cell Signaling), cleaved caspase‐3 (1:200, Cell Signaling Technology), anti‐mutant Huntingtin (1:100, Developmental Studies Hybridoma Bank, University of Iowa, #MW8), and NeuN (1:1,000, Millipore). Corresponding secondary antibodies (Alexa Fluor 546 conjugated anti‐mouse (1:200, Thermo Fisher Scientific), Alexa Fluor 488 conjugated anti‐rabbit (1:500, Thermo Fisher Scientific) and Pacific Blue goat anti‐mouse (1:200, Thermo Fisher Scientific) were incubated at room temperature for 1 h. Sections stained for mutant Huntingtin were incubated with DAPI for 20 min. Sections were subsequently mounted with fluorescent mounting medium (DAKO). Single and double‐labeled images ([…]) were obtained at 40× magnification from the striatum using a laser scanning confocal microscope (Leica SP2) equipped with the corresponding lasers and appropriate filter sets to avoid the crosstalk between the fluorochromes.
In ex‐vivo and in‐vivo immunofluorescence experiments, the number of p‐S6 or p‐AcH3 immunoreactive neurons among NeuN‐positive neurons was counted in 2–3 consecutive striatal sections per mouse in four fields per section. Caspase 3‐positive cells were quantified among NeuN‐positive neurons in each slide and expressed as percentage (ratio between caspase‐3‐positive cells and total NeuN‐positive neurons) for each field acquired through the slide. The number of cells showing mutant Huntingtin inclusions were expressed as a percentage of mutant Huntingtin‐positive cells among DAPI‐positive cells.

[3] = RB5 brain levels by HPLC-MS/MS; type: in vivo, mouse; set-up: Brain levels measured with mass spectrometry: unit not given here; conditions: single 20 mg/kg i.p.; for Brain levels measured with mass spectrometry: mouse brain homogenate, individual mice, 20 mg/kg
Protocol: RB5 was quantified in the mouse brain using HPLC‐MS/MS. Brain samples were homogenized with 1:4 w/v of 50% acetonitrile 5% TFA in water with a homogenizer ultra‐turrax and then centrifuged at 13,000 rpm for 10 min at 4°C. The supernatant was collected and centrifuged at 15,871 g for 2 min at 4°C. The supernatant was then collected on ice, extracted using Sep‐Pak cartridges C18, lyophilized and kept at 4°C before HPLC‐MS/MS analysis. Immediately before the analysis, samples were suspended in 100 μl of 0.1% HCOOH in water/8% acetonitrile in auto‐sampler vials.
HPLC‐MS/MS analysis was performed using a system consisting of an Agilent 1200 series HPLC system coupled with an Agilent 6410 Triple Quadruple mass spectrometer. Mass Hunter Workstation v. B.01.03 software was used for data collection and processing (Agilent Technologies, Santa Clara, California, US). The quantification of brain levels of RB5 and Scramble peptides was carried out using an internal standard curve with peptide concentrations ranging from 0.1 to 4 ng/μl. RB5 and Scramble peptides, and the internal standard were separated at room temperature by injecting 10 μl of extracted sample onto a Jupiter C4 300 A analytical column, 2 × 150 mm, 5 μm particle size (Phenomenex, CA). Gradient elution was used for chromatographic separation, using 0.1% formic acid in water as solvent A and acetonitrile as solvent B at a flow rate of 200 μl/min. The elution started with 92% of eluent A and 8% of eluent B maintained for 1 min, followed by a 4 min linear gradient to 75% of eluent B, a 1 min linear gradient to 99% of eluent B, a 2 min isocratic elution, and a 0.5 min linear gradient to 8% of eluent B, which was maintained for 9.5 min to equilibrate the column. The samples were maintained at 4°C in the autosampler.
Peptides were then detected on an Agilent 6410 QQQ mass spectrometer using the following parameters: positive ion mode, 5 kV capillary voltage, cone voltage 500 V, gas flow rate 8 l/min at 350°C, nebulizer gas pressure 40 PSI at 350°C, well time 75 msec and Q1 and Q3 set to unit resolution.

Substance | FR1 nose poke, AUC analysis ([1]; WT females, treatment day 1) | FR1 nose poke, AUC analysis ([1]; WT females, treatment day 2) | FR1 nose poke, AUC analysis ([1]; WT females, treatment day 3) | FR1 nose poke, AUC analysis ([1]; WT females, treatment day 4) | FR1 nose poke, AUC analysis ([1]; WT females, treatment day 5) | FR1 nose poke, AUC analysis ([1]; WT females, treatment day 6) | FR1 nose poke, AUC analysis ([1]; WT females, treatment day 7) | FR1 nose poke, AUC analysis ([1]; WT females, treatment day 8) | FR1 nose poke, AUC analysis ([1]; WT females, treatment day 9) | FR1 nose poke, AUC analysis ([1]; zQ175 females, treatment day 1) | FR1 nose poke, AUC analysis ([1]; zQ175 females, treatment day 2) | FR1 nose poke, AUC analysis ([1]; zQ175 females, treatment day 3) | FR1 nose poke, AUC analysis ([1]; zQ175 females, treatment day 4) | FR1 nose poke, AUC analysis ([1]; zQ175 females, treatment day 5) | FR1 nose poke, AUC analysis ([1]; zQ175 females, treatment day 6) | FR1 nose poke, AUC analysis ([1]; zQ175 females, treatment day 7) | FR1 nose poke, AUC analysis ([1]; zQ175 females, treatment day 8) | FR1 nose poke, AUC analysis ([1]; zQ175 females, treatment day 9) | pS6 (Ser235/236) immunoreactive neurons among NeuN-positive neurons ([2]; then glutamate 100 μM 10 min) | pS6 (Ser235/236) immunoreactive neurons among NeuN-positive neurons ([2]; then vehicle 10 min) | also measured
GRKKRRQRRRPPQGGGGGEPRRTEGVGPGVPGEVEMVKGQPFDV [RB5, six D-amino acids, acetylated N-terminus] | 696.2 | 784.67 | 771.56 | 796.53 | 786.86 | 819.62 | 786.91 | 844.4 | 832.09 | 293.69 | 300.15 | 373.09 | 374.4 | 384.76 | 413.69 | 454.91 | 338.07 | 338.07 | blunted and 17.3997 and 19.6901 and 16.4767 and 13.6077 and 18.6740 and 17.1380 and 11.1928 and 12.0526 and 14.5710 and 10.2402 and 9.5439 and 15.5782 and 12.6217 and 14.7339 | 13.7412 and 14.9907 and 12.2371 and 13.4483 and 9.59 and 9.671 and 8.798 and 18.1241 and 17.7385 and 16.8553 and 14.4173 and 14.7976 and 16.1024 and 14.3475 | Nose poke responses (FR1) ([1]; WT and zQ175 females): significantly enhanced responses; Nose poke responses (FR1) ([1]; zQ175 males): did not alter responses; Time RB5 is detectable in brain postinjection (mass spectrometry) ([3]; mice): up to 6 h; Brain levels measured with mass spectrometry ([3]; 1 h): 92.2252 and 89.7022 and 75.321 and 38.8889 and 66.5288; Brain levels measured with mass spectrometry ([3]; 3 h): 119.5 and 39.8058 and 101.408 and 83.7545 and 96.934; Brain levels measured with mass spectrometry ([3]; 6 h): 57.0702 and 47.9263 and 56.5714 and 68.7679 and 72.8353; Brain levels measured with mass spectrometry ([3]; 12 h): 8.439 and 16.5056 and 9.465 and 6.558
SCR: ineffective Scramble version of RB5 containing a TAT sequence (GRKKRRQRRRPPRVGPGVPEGVGVAVFGVKEPGQTGDVGPVGE) [reference compound] | 426 | 494 | 529 | 551 | 606 | 632 | 637 | 652 | 625 | 79.44 | 88.63 | 81.25 | 82.51 | 86.56 | 92.15 | 90.83 | 92.99 | 83.24 | 26.24 and 21.87 and 18.27 and 25.45 and 28.87 and 26.8562 and 29.1865 and 24.4192 and 22.75 and 21.51 and 19.87 and 20.18 | 12.33 and 13.90 and 11.33 and 13.09 and 9.47 and 11.58 and 11.02 and 10.86 and 14.51 | Brain levels measured with mass spectrometry ([3]; 1 h): 6.434 and 8.14
